Test results as given in US20170226514A1, “PREVENTION OF TUMOUR METASTASIS BY INHIBITION OF NECROPTOSIS” (MAX-PLANCK-GESELLSCHAFT ZUR FÖRDERUNG DER WISSENSCHAFTEN …, priority 2014, published 2017).

Tests used:
HUVEC [1] = test: Cell death assay discriminating apoptotic from necrotic cell death in HUVEC; assay type: cell-based, human; details: stimulated overnight; staining with Hoechst 33342 and EtDIII
Experimental: Endothelial cells were grown to reach 80-90% confluency before addition of Ethidium homodimer […]) alone or together with substances or with tumour cells together with substances or inhibitors as indicated in the figures. After 6-18 h, cells were stained with Hoechst33342 and images were acquired. In order to identify the mode of cell death, all images were analyzed with FIJI. The total number of nuclei was determined through a low threshold over all Hoechst positive nuclei. On the same channel a second, separate threshold was used to determine the number of condensed nuclei. A third threshold on the second channel was used in order to determine the number of nuclei that were stained positive for […]. Knockdown in cells was achieved by double-transfection with siRNA using Lipofectamie […] Assays: HUVECs, HMVECs-L or L929 cells (1.5×10^4 at seeding in 100 μl) were cultured for 24 hours in 96-well plates. To induce cell death, cells were stimulated overnight with either rhTRAIL (100 ng/ml, Peprotech), Staurosporine ([…], Jena BioScience), H2O2 (1 mM, AppliChem) or […] (100 ng/ml, Peprotech) or cultured under hypoxic conditions (1% O2, Coy Laboratory Inc). […] Knockdown efficiencies were determined by Western Blotting using antibodies against RIPK3 (Abcam), Caspase-8 (ProSci) and a-tubulin (Sigma) upon lysis with Laemmli buffer or by quantitative PCR (Roche). […] Knockdown efficiencies were determined using quantitative PCR (Roche). Tumor cell number upon knockdown was determined by counting Hoechst33342-positive cells, and tumor cell death was determined by counting condensed and/or EthD-III-positive nuclei (see below). Cell migration was determined by a scratch assay Wang et al., 2007). […]

L929 cells = test: Cell death assay in L929 cells (TNF-induced necroptosis, Hoechst 33342/EtDIII staining); assay type: cell-based, mouse; details: L929 cells treated with TNFα; staining with Hoechst 33342 and EtDIII
Experimental: Cell Death Assays: HUVECs, HMVECs-L or L929 cells (1.5×10^4 at seeding in 100 μl) were cultured for 24 hours in 96-well plates. To induce cell death, cells were stimulated overnight with either rhTRAIL (100 ng/ml, Peprotech), Staurosporine ([…], Jena BioScience), H2O2 (1 mM, AppliChem) or […] (100 ng/ml, Peprotech) or cultured under hypoxic conditions (1% O2, Coy Laboratory Inc). […] Knockdown efficiencies were determined by Western Blotting using antibodies against RIPK3 (Abcam), Caspase-8 (ProSci) and a-tubulin (Sigma) upon lysis with Laemmli buffer or by quantitative PCR (Roche). […] Knockdown efficiencies were determined using quantitative PCR (Roche). Tumor cell number upon knockdown was determined by counting Hoechst33342-positive cells, and tumor cell death was determined by counting condensed and/or EthD-III-positive nuclei (see below). Cell migration was determined by a scratch assay Wang et al., 2007). […] To all images to be analyzed, a Gaussian blur with a radius of 3 pixels was applied to prevent repeatedly counting of fragmented parts of apoptotic nuclei. […] The total number of all endothelial nuclei was determined through a low threshold (TH1) and application of a watershed on the resulting binary image over all Hoechst positive nuclei (minus the nuclei from tumor cells). […]

HUVEC [2] = test: Tumour cell-induced endothelial cell necroptosis in vitro (co-culture, Hoechst 33342/EtDIII staining); assay type: cell-based, human; details: Nec-1 30 μM, co-culture overnight
Experimental: Endothelial cells were grown to reach 80-90% confluency before addition of Ethidium homodimer […]) alone or together with substances or with tumour cells together with substances or inhibitors as indicated in the figures. After 6-18 h, cells were stained with Hoechst33342 and images were acquired. In order to identify the mode of cell death, all images were analyzed with FIJI. The total number of nuclei was determined through a low threshold over all Hoechst positive nuclei. On the same channel a second, separate threshold was used to determine the number of condensed nuclei. A third threshold on the second channel was used in order to determine the number of nuclei that were stained positive for […]. Knockdown in cells was achieved by double-transfection with siRNA using Lipofectamie […] […] Knockdown efficiencies were determined by Western Blotting using antibodies against RIPK3 (Abcam), Caspase-8 (ProSci) and a-tubulin (Sigma) upon lysis with Laemmli buffer or by quantitative PCR (Roche). […] Knockdown efficiencies were determined using quantitative PCR (Roche). Tumor cell number upon knockdown was determined by counting Hoechst33342-positive cells, and tumor cell death was determined by counting condensed and/or EthD-III-positive nuclei (see below). Cell migration was determined by a scratch assay Wang et al., 2007). […]

[3] = test system: endothelial cells of the mouse lung; test: Tumour cell-induced endothelial cell death in vivo (EthD-III-positive endothelial cells in lung, 6 h); details: B16 tumour cells i.v., Nec-1 1.65 μg/g i.v. per dose
Experimental: (§1) In vivo: Tumour cells and substances or inhibitors were injected i.v. as depicted in the scheme in FIG. 5B into wildtype animals or animals of the respective genotype. To identify EtDIII-positive cells in vivo, animals were injected with EtDIII i.v. 10 min before sacrifice. Organs were isolated and processed for immunohistochemical analysis. For determining the number of metastasis, animals were sacrificed, lungs were isolated and macroscopically analyzed. All reagents used for these studies (incl. DR6-Fc) are commercially available (e.g. Lonza, CellSignaling, Sigma, R&D, etc.). […]
(§2) TUNEL staining kit was from Roche. Sections were analyzed in XYZ views on a Leica SPS confocal microscope. The number of EthD-III-positive endothelial cells was determined by manual counting of EthD-III/ERG- or EthD-III/CD31-positive cells on a minimum of four random tissue sections per organ. For quantification of extravasating tumor cells, cryosections were analyzed by two criteria: tumor cells directly surrounded by CD31 staining (i.e. blood vessel) and with a noninvasive phenotype (i.e. round cell shape) were scored as intravascular, while cells outside blood vessels with an invasive phenotype (i.e. irregular cell shape with protrusions) were scored as extravascular. […]

B16 or LLC1 tumour cells = test: Metastasis model: lung metastases after i.v. tumour cell injection (12 d); assay type: in vivo, mouse; details: Nec-1 1.65 μg/g i.v. per dose, lungs at 12 d
Experimental: as §1, §2

RIPK1 = target: T1, RIPK1 (Homo sapiens, UniProt Q13546); details: cited from earlier work
T1 sequence (Q13546 1-671): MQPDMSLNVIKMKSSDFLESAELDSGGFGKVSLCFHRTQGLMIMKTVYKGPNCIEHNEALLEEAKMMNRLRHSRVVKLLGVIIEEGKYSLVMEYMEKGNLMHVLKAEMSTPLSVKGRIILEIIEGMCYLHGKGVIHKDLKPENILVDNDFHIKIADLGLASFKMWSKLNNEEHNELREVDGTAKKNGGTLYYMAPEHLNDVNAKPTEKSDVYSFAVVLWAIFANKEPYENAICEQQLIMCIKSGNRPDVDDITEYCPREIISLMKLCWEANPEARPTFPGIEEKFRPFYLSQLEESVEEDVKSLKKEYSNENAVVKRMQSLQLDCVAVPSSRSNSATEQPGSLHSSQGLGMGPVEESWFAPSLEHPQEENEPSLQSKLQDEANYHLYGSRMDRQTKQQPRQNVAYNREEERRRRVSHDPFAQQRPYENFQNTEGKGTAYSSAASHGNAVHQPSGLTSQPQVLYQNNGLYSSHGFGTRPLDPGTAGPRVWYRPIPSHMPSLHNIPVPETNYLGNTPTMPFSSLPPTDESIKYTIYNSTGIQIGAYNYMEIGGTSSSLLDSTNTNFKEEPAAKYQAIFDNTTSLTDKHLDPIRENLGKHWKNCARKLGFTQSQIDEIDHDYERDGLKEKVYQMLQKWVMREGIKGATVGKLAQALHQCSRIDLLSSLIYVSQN

necroptosis = details: where Nec1i can be modified to an active form; cited from earlier work

Which “type of cell death induced in HUVEC” value (HUVEC [1]) does the source give for `OO` [H2O2] here?
Its value is “necrotic phenotype”.

With `CN[C@@H]1C[C@H]2O[C@@](C)([C@@H]1OC)n1c3ccccc3c3c4c(c5c6ccccc6n2c5c31)C(=O)NC4` [Staurosporine] as the molecule, how does the “type of cell death induced in HUVEC” value (HUVEC [1]) read?
Its value is “induced apoptosis”.

Which “TNF-induced necrotic (necroptotic) phenotype of L929 cells, effect of addition of inhibitor” value (L929 cells) does the source give for `CN1C(=O)C(Cc2c[nH]c3ccccc23)NC1=S` (stereo not drawn) [Nec-1, 5-(1H-indo1-3-ylmethyl)-3-methyl-2-thioxo-4-imidazolidinone] here?
The value was “could be blocked”.

What about the “tumour cell-induced necroptosis of endothelial cells in vitro (number of necroptotic HUVEC)” value (HUVEC [2]) of the same molecule?
The value was “reduced”.

What about the “tumour cell-induced endothelial necroptosis in vivo (necroptotic ECs)” value [3] of the same molecule?
Its value is “reduced”.

And the “metastasis formation in vivo” value (B16 or LLC1 tumour cells)?
Its value is “reduced”.

For `O=C1NC(=S)NC1Cc1c[nH]c2ccccc12` (stereo not drawn) [Nec-1 inactive, 5-((1H-indol-3-yl)methyl)-2-thioxoimidazolidin-4-one], which “effectiveness in vitro relative to Nec-1 (times less effective)” value (RIPK1) is on record?
Its value is “approximately 100 times”.

And the “inhibition of necroptosis in cellular systems or in vivo” value (necroptosis)?
Its value is “can efficiently inhibit necroptosis”.

B1: TRAIL: known stimulus for apoptosis, rhTRAIL from Peprotech (protein, UniProt P50591 1-281, looked up)
Tumor necrosis factor ligand …: MAMMEVQGGPSLGQTCVLIVIFTVLLQSLCVAVTYVYFTNELKQMQDKYSKSGIACFLKEDDSYWDPNDEESMNSPCWQVKWQLRQLVRKMILRTSEETISTVQEKQQNISPLVRERGPQRVAAHITGTRGRSNTLSSPNSKNEKALGRKINSWESSRSGHSFLSNLHLRNGELVIHEKGFYYIYSQTYFRFQEEIKENTKNDKQMVQYIYKYTSYPDPILLMKSARNSCWSKDAEYGLYSIYQGGIFELKENDRIFVSVTNEHLIDMDHEASFFGAFLVG
With B1 as the molecule, how does the “type of cell death induced in HUVEC” value (HUVEC [1]) read?
Its value is “induced apoptosis”.
